Data: patent publication US20240366543A1, “METHODS OF TREATING METHYLMALONIC ACIDEMIA AND PROPIONIC ACIDEMIA” (HemoShear Therapeutics, Inc., priority 2021, published 2024)

Experiment: Phase 2 study preliminary plasma pharmacokinetics in PA/MMA subjects
Assay type: in vivo, human
Conditions: dose range of 1 mg/kg to 30 mg/kg, once or twice daily
Experimental: Part A is the dose escalation phase to assess the initial safety and to confirm the pharmacologic activity of Compound 5 in subjects with PA and MMA. Screening for eligibility took place within 28 days of enrollment. All subjects were initially evaluated during a 4-week run-in period followed by within-subject dose escalation of 3 doses (1, 3, and 10 mg/kg QD of sodium 2,2-dimethylbutanoate); dose escalation interval of 4 weeks) to check for improvement in disease-related biomarkers.
Plasma will be analyzed by liquid chromatography with tandem mass spectrometry (LC-MS/MS) with a lower limit of quantitation of 0.100 μg/mL. Samples collected for analyses of Compound 5 (plasma/serum/whole blood)] concentration may also be used to evaluate safety or efficacy aspects related to concerns arising during or after the study.
Preliminary pharmacokinetics (PK) data from the first two subjects of Study described in Examples 7-8 was evaluated at 1 mg/kg, 3 mg/kg and 10 mg/kg of Compound 5 dosed once daily (QD).

- Blood plasma concentrations versus dose: dose proportional
Compound: CCC(C)(C)C(=O)[O-].[Na+] [Compound 5A, 2,2-dimethylbutyric acid sodium salt]
